{"source": "patent US10966994B2", "about": "“Thromboxane receptor antagonists” (ATXA THERAPEUTICS LIMITED, priority 2015, dated 2021)", "tested_on": "MCT-induced PAH", "assay": "Monocrotoline (MCT)-induced model of pulmonary arterial hypertension (PAH) in rats", "type": "in vivo, rat", "details": "day 28, oral BID, NTP42 and TP20 0.25 mg/kg/dose, Sildenafil 50 mg/kg/dose", "protocol": "FIGS. 19-23 show the efficacy of NTP42 in the monocrotoline (MCT)-induced model of pulmonary arterial hypertension (PAH) in rats. In brief, male Wistar/Kyoto rats were given a single dose of MCT (60 mg/kg, subcutaneously) and then treated with twice daily doses (oral dosing) for 28 days with either the drug vehicle, the test article NTP42 (0.25 mg/kg/dose, BID) or with the reference compounds Sildenafil (50 mg/kg/dose, BID) or TP20 (0.25 mg/kg/dose, BID). As a control, a group of rats were left untreated, i.e., no MCT or therapeutic drugs. At Day 28, post-MCT induction, rats were anaesthetised for cardiac surgery & hemodynamic parameters recorded. Thereafter, the trachea, heart & lungs were removed en masse, the wet weights of the heart & lungs recorded and then the lungs were harvested, fixed and processed for histopathology.\nAperio's ImageScope was used to analyze the digitally scanned H&E stained lung sections, where 10 random squares (approx. size or each square=1×10^6 μm^2) per lower, middle and upper section of lung tissue were selected for analysis. Within each square, all blood arterioles (complete arterioles within each square and those touching the right & bottom were assessed but not the left or top of the squares) were measured in ImageScope for luminal and total vessel diameter where the ratio of lumen to total vessel diameter was determined for each arteriole.\nFIGS. 24-27 show the effect of the test articles on the mean (±S.E.M.) lumen: total vessel diameter ratio for all arterioles (Total) and the arterioles categorized by size: small, <50 μm total diameter; medium, 50-100 μm and large, >100 μm.\nFIG. 27 presents data representing the mean (±SEM) lumen: total vessel diameter ratio for large arterioles (>100 μm)."}
{"smiles": "CCCc1nn(C)c2c(=O)[nH]c(-c3cc(S(=O)(=O)N4CCN(C)CC4)ccc3OCC)nc12", "note": "[Sildenafil, reference compound]", "values": [{"measurement": "lumen: total vessel diameter ratio versus animals treated with MCT-alone", "value": "significantly increased"}]}
